Legend:
HCT116 cells = experiment: Mitotic arrest assay on HCT116 cells (phospho-histone H3 Ser10); format: cell-based, human; settings: Homo sapiens, HCT-116, HCT116 cells; lowest active dose; read-out: Mitotic arrest HCT116 LAD (converted)
In short: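 Seeded overnight, then compound-treated 6 h at 37 °C (≤0.1% DMSO); fixed, stained with Alexa Fluor 488 anti-phospho-H3 (Ser10) plus Hoechst 33342, imaged on InCell Analyzer 1000. Blank-subtracted signal divided by SD (sigma), triplicate; value is lowest dose giving sigma >5 (LAD).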

tubulin = experiment: Tubulin polymerization assay; format: biochemical; design: key: a compound showing 0 to 50% inhibition at 20 μM is reported as score 1; Score 2 compounds are defined as compound showing more than 50% inhibition at 20 μM and less than 50% inhibition at 5 μM; a compound showing more than 50% inhibition at 5 μM is reported as score 3; settings: tested at 20 μM and 5 μM
Method: The tubulin polymerization assay is an adaptation of an assay originally described by Bonne, D. et al. (J. Biol. Chem., 1985, 260:2819-25). The assay kit was purchased from Cytoskeleton, Inc. (catalogue number BK011) and the assay was performed as described by the supplier with the following modifications. The assay was run in a 384-well black Proxiplate (Perkin Elmer) and volumes were adapted accordingly. The reactions were carried out in a final volume of 10 μl. Compounds were added to 25 μl of the reaction mix in 96-well PP plates (Corning) on ice and 10 μl of this mixture was dispensed into duplicates of the 384-well Proxiplates pre-warmed to 37° C. in a Fluoroskan Ascent plate reader (Thermo Scientific). Fluorescence measurements were taken every minute for one hour. The maximum slope of each well was determined (linear regression through 4 consecutive points) and polymerization was calculated as a percentage of polymerization observed in the absence of compound. Compounds were first measured at a concentration of 20 μM and then at 5 μM for those showing more than 50% inhibition at 20 μM as compared to the polymerization observed in the absence of compound. Results are reported in Table F-2 as scores defined as: a compound showing 0 to 50% inhibition at 20 μM is reported as score 1; a compound showing more than 50% inhibition at 5 μM is reported as score 3.

Question: For `CCc1cc2ccc(C(C)(C#N)Cc3cccc(I)c3)cc2[nH]c1=O` (stereo not drawn) [Compound 19], which melting point is on record?
Answer: Its melting point is 158 °C.

Question: What about the minimal effective concentration (HCT116 cells) of the same compound?
Answer: Its minimal effective concentration is 0.1 µM.

Question: What about the tubulin polymerisation score (tubulin) of the same compound?
Answer: The tubulin polymerisation score was 2.
